Data: patent US5750558A, “Oxime derivatives of indole and indene compounds as inhibitors of prostaglandin biosynthesis” (Abbott Laboratories, priority 1996, dated 1998)

Experiments:
PGHS-1 = conditions: background statement; cited from earlier work
PGHS-2 = conditions: background statement; cited from earlier work
recombinant human PGHS-2 = molecular target: T1, recombinant human PGHS-2 (Homo sapiens, UniProt P35354); experiment: Inhibition of prostaglandin biosynthesis in recombinant human PGHS-2 enzyme assay (PGE2 by EIA); assay type: biochemical
T1 construct: made in house; host or cells: baculovirus/Sf9 insect cells (microsomes)
T1 sequence (P35354 18-604): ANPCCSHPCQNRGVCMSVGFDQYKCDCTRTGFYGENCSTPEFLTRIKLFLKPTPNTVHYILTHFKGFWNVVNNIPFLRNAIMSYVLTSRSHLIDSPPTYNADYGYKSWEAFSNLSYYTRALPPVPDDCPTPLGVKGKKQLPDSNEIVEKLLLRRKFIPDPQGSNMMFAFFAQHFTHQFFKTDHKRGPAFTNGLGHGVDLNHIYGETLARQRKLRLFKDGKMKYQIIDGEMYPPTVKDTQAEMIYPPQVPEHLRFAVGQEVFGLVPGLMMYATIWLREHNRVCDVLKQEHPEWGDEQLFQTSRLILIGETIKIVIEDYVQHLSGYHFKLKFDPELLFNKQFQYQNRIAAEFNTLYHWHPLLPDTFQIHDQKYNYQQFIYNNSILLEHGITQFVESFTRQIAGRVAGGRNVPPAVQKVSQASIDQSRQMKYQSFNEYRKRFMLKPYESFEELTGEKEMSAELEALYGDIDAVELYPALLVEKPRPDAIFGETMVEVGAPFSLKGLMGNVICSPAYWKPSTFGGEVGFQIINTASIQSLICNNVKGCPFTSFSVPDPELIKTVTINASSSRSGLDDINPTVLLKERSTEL
Method: (§1) Inhibition of prostaglandin biosynthesis was evaluated in recombinant human PGHS-1 and PGHS-2 enzyme assays. Representative compounds dissolved in DMSO (3.3% v/v) were preincubated with microsomes from recombinant human PGHS-1 or PGHS-2 expressed in the baculovirus/Sf9 cell system (Gierse, J. K., Hauser, S. D., Creely, D. P., Koboldt, C., Rangwala, S., H., Isakson, P. C., and Seibert, K. Expression and selective inhibition of the constituitive and inducible forms of cyclooxygenase Biochem J. 1995, 305: 479.), together with the cofactors phenol (2 mM) and hematin (1 μM) for 60 minutes prior to the addition of 10 μM arachidonic acid. The reaction was allowed to run for 2.5 minutes at room temperature prior to quenching with HCl and neutralization with NaOH. PGE2 production in the presence and absence of the drug was determined by EIA analysis. The EIA was conducted in 96 well microtiter plates (Nunc Roskilde, Denmark) and optical density measured using a microplate reader (Vmax, Molecular Devices Corp., Menlo Park, Calif.). EIA reagents for prostaglandin determination were purchased from Perseptive Diagnostics, Cambridge, Mass. PGE2 levels were measured against standards prepared in the same milieu. The immunoassays were conducted as recommended by the manufacturer.

recombinant human PGHS-1 = molecular target: T2, recombinant human PGHS-1 (Homo sapiens, UniProt P23219); experiment: Inhibition of prostaglandin biosynthesis in recombinant human PGHS-1 enzyme assay (PGE2 by EIA); assay type: biochemical
T2 construct: made in house; host or cells: baculovirus/Sf9 insect cells (microsomes)
Method: as §1

T2 sequence (P23219 24-599): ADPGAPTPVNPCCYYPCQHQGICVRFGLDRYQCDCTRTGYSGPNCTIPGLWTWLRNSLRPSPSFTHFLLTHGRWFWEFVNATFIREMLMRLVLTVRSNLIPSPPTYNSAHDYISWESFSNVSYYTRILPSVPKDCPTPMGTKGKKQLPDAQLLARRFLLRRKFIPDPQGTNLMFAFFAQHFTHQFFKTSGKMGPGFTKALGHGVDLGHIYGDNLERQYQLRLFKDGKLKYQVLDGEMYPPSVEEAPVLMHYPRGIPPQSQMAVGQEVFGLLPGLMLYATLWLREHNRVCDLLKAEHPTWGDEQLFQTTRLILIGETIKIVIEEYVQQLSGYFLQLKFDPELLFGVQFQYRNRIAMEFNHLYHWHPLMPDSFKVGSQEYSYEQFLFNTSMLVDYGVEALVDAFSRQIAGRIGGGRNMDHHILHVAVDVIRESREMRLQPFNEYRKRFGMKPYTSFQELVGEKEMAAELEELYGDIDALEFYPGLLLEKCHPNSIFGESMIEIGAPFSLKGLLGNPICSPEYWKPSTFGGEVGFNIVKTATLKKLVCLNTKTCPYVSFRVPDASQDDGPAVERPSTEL

Row | Compound | inhibition of PGHS-1 (PGHS-1) | inhibition of PGHS-2 (PGHS-2) | further results
1 | COc1ccc2cc([C@H](C)C(=O)O)ccc2c1 [naproxen] | inhibit both isozymes | inhibit both isozymes | –
2 | COc1ccc2c(c1)c(CC(=O)O)c(C)n2C(=O)c1ccc(Cl)cc1 [Indomethacin] | inhibit both PGHS-1 and PGHS-2 | inhibit both PGHS-1 and PGHS-2 | –
3 | CC1=C(CC(=O)O)c2cc(F)ccc2/C1=C\c1ccc([S+](C)[O-])cc1 (stereo not shown) [sulindac] | inhibit both PGHS-1 and PGHS-2 | inhibit both PGHS-1 and PGHS-2 | –
4 | COc1ccc2c(c1)c(CC=NOCC(=O)O)c(C)n2C(=O)c1ccc(Cl)cc1 [Example 1, (4-chlorobenzoyl-5-methoxy-2-methylindol-3-yl) acetaldehyde-.omicron.-carboxymethyl oxime] | – | – | IC50 (recombinant human PGHS-2): 730 nM
5 | COc1ccc2c(c1)c(CC=NOCC(=O)OCC1COC(C)(C)O1)c(C)n2C(=O)c1ccc(Cl)cc1 (stereo not shown) [Example 2, (4-chlorobenzoyl-5-methoxy-2-methylindol-3-yl) acetaldehyde-.omicron.-4-(2.2-dimethyldioxanylmethyloxycarbonylmethyl) oxime] | – | – | IC50 (recombinant human PGHS-2): 3 nM; IC50 (recombinant human PGHS-1): 90 nM
6 | COc1ccc2c(c1)c(CC=NOCC(=O)OCC(O)CO)c(C)n2C(=O)c1ccc(Cl)cc1 (racemic) [Example 3, (4-chlorobenzoyl-5-methoxy-2-methylindol-3-yl) acetaldehyde-.omicron.-4-(2.3-dihydroxypropyloxycarbonylmethyl) oxime] | – | – | inhibition at 0.1 µM (recombinant human PGHS-2; @ 0.1 μM, human recombinant PGHS-2, read-out: PGHS-2 % inhibition (printed in PGHS-2 IC50 column)): 70%; inhibition at 1 µM (recombinant human PGHS-1; @ 1 μM, human recombinant PGHS-1, read-out: PGHS-1 % inhibition (printed in PGHS-1 IC50 column)): 41%
7 | CC(C)Cc1ccc(C(C)C(=O)O)cc1 (stereo not shown) [ibuprofen] | inhibit both isozymes | inhibit both isozymes | –
